Test results from publication PMC9307114, “Discovery and SAR analysis of phenylbenzo[d][1,3]dioxole-based proprotein convertase subtilisin/kexin type 9 inhibitors” (Journal of Enzyme Inhibition and Medicinal Chemistry, 2022).

Legend:
[1] = system: LDLR level on the surface of HepG2 cells; assay: LDLR expression assay, In-Cell Western (ICW), in the presence of PCSK9; assay type: cell-based, human; settings: HepG2 cells in the presence of PCSK9, compared with positive control SBC-115337
Method: LDLR is degraded in lysosomes by binding to PCSK9. Thus, inhibition of PCSK9/LDLR PPI could increase the LDLR level on the surface of hepatocytes. In the current study, human hepatic HepG2 cells were selected for the investigation of the active compounds for LDLR expression. SBC-115337, developed by Shifa Biomedical Corporation, as a potent PCSK9/LDLR PPI inhibitor was utilised as the positive control. All the synthesised compounds were evaluated to be safe with low inhibitory ratios at the dose of 10 µM in the MTT assay (Tables 1–3). Then, in cell western (ICW) assay was performed to detect the LDLR level on the surface of HepG2 cells.
The HepG2 cell line was grown in a humidified incubator with 5% CO2 at 37 °C and cultured in DMEM-High glucose medium with 10% (v/v) heat-inactivation foetal bovine serum, 2 mM L-glutamine and 100 U/ml penicillin-streptomycin. The expression level of LDLR in HepG2 cells was determined by In-Cell Western (ICW) Assay as described previously. Briefly, cells were plated in a 96-well plate (2 × 10^4 cells per well) and cultured for more than 24 h, followed by washing with PBS and starving overnight in DMEM without FBS. HepG2 cells were treated with 4.0 μg/ml PCSK9 (K9) alone and the tested compounds with the presence of 4.0 μg/ml of K9, and vehicle (PBS) for 8 h. Then cells were washed with PBS one time and fixed in 4% paraformaldehyde for 20 min. Cells were washed 5 times with PBS, then were blocked with 5% BSA in PBS for 1 h. LDLR monoclonal Antibody solution (1:1000 in 5% BSA in PBS, 50.0 μL/well) was incubated overnight at 4 °C. Subsequently, the cells were washed 5 times with PBS. Goat anti-mouse IgG-HRP secondary antibody solution (1:2000 in 5% BSA in PBS, 50.0 μL/well) was added and incubated 1 h at RT. Then cells were washed 5 times with PBS and added with TMB substrate, then incubated at RT until desired colour was developed. 50.0 μL/well of 2 M H2SO4 were added to stop the reaction and the absorbance at 450 nm was measured using a plate reader (EnSpire, Perkin Elmer Corporation).

[2] = system: LDL uptake of HepG2 cells; assay: Fluorescent LDL uptake assay in the presence of PCSK9; assay type: cell-based, human; settings: PCSK9 treatment group 29.82%
Method: Extracellular LDL uptake assay was performed to evaluate the functional effects of PCSK9/LDLR PPI inhibition. The effects of active compounds in improving the capacity of HepG2 cells to uptake the fluorescent LDL were investigated using SBC-115337 as the positive control. […] The tested compound A12, B1, B3, B4 and B14 strengthened the ability of HepG2 cells to absorb LDL from 29.82% of the PCSK9 treatment group up to 32.78%, 33.29%, 39.58%, 36.24% and 42.41% at the doses of 5 µM, and 44.80%, 47.15%, 50.67%, 49.94 and 64.27% at the doses of 10 µM, respectively.
HepG2 cells (2 × 10^4 cells per well) were seeded in black 96-well plates and cultured for more than 24 h. The following day, cells were treated with 4.0 μg/ml K9 alone and the tested compounds with the presence of 4.0 μg/ml of K9, and vehicle (PBS) for 8 h. At the end of the treatments, the culture medium was replaced with 50.0 μl/well LDL-DyLight™ 550 working solution (Cayman Chemical Company, US). The cells were additionally incubated for 16 h at 37 °C. Then the cells were washed with PBS one time, then added PBS with 100.0 μl/well. The degree of LDL uptake was measured using a plate reader (EnSpire, Perkin Elmer Corporation) at excitation wavelengths 540 nm and emission wavelengths 570 nm.

[3] = system: HepG2 cells; assay: MTT assay on HepG2 cells; assay type: cell-based; settings: Homo sapiens, mean of three experiments, read-out: HepG2 percentage inhibitory rate
[4] = target: PCSK9/LDLR PPI (Homo sapiens, UniProt Q8NBP7); assay: PCSK9-LDLR TR-FRET assay (PCSK9/LDLR PPI inhibitory screening); assay type: binding; settings: for inhibition at 10 µM: mean of three experiments, read-out: PCSK9 percentage inhibitory rate; for IC50: dose-dependent IC50 plot, Figure 3, read-out: PCSK9 IC50 (inhibition of PCSK9/LDLR PPI)
Method: The PCSK9/LDLR time-resolved fluorescence resonance energy transfer (TR-FRET) assay was performed to evaluate the activity of synthesised compounds in inhibition of PCSK9-LDLR binding. The A series compounds were firstly synthesised for the PCSK9/LDLR PPI inhibitory test. […] Therefore, a group of A12 derivatives (B series) were synthesised with 4-chlorobenzyl substituted in the amino group and various substitutions introduced to the carboxylic group. […] To confirm whether the 4-chloromethyl group is essential for the PPI inhibitory activity, a new series of compounds (C series) were synthesised with the 4-chloromethyl group replaced by 4-methoxymethyl moiety. The inhibitory activity was observed, most likely resulting from the 4-methoxymethyl substitution (Table 3).
The compounds were dissolved in 100% DMSO; then 2 µL of the dilution was added to a 20 µL of reaction to keep […] in all of reactions. The binding reaction was conducted at room temperature. The reaction mixture in assay buffer contains PCSK9, the indicated amount of the inhibitor, ligand LDLR, and the reaction dyes. The reaction mixture was incubated for 120 min before detection of the TR-FRET signal. Fluorescence signals for both the donor and acceptor dyes were measured using a Tecan Infinite M1000 plate reader. TR-FRET was recorded as the ratio of the fluorescence of the acceptor and the donor dyes (acceptor/donor). The TR-FRET data were analysed using Graphpad Prism software.

[5] = 5 µM compound with 4.0 μg/ml PCSK9
[6] = 10 µM compound with 4.0 μg/ml PCSK9

Chain of PCSK9/LDLR PPI (Q8NBP7 153-692): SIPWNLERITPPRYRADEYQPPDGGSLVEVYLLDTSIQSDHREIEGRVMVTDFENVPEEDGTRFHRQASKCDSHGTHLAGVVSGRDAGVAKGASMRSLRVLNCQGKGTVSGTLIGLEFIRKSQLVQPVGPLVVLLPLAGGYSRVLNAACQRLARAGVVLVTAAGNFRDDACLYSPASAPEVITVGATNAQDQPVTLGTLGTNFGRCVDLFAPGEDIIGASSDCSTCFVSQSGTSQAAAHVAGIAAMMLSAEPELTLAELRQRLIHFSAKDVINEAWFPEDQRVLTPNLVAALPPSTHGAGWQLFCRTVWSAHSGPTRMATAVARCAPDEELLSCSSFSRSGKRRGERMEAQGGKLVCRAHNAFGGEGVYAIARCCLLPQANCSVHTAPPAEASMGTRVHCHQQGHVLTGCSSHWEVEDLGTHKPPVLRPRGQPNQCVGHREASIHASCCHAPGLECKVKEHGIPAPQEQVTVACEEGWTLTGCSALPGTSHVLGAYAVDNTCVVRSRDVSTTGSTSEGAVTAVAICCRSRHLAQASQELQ
Chain of PCSK9/LDLR PPI (Q8NBP7 31-152 partner limits assumed): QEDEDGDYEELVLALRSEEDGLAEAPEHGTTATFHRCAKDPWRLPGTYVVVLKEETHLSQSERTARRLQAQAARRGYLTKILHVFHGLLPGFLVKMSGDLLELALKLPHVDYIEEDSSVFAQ

Row | SMILES | inhibition at 10 µM [4] [%] | IC50 [4] [µM] | effect on LDLR protein level (in words) [1] | LDL uptake of HepG2 cells [2, 5] [%] | LDL uptake of HepG2 cells [2, 6] [%] | inhibition at 10 µM [3] [%]
1 | COc1cc(NC(=O)c2ccc(-c3cc4c(cc3NC(=O)c3ccc(CCl)cc3)OCO4)cc2)cc(OC)c1OC [A12, 4-(Chloromethyl)-N-(6-(4-((3,4,5-trimethoxyphenyl)carbamoyl)phenyl)benzo[d][1,3]dioxol-5-yl)benzamide] | 45.1 ± 0.12 | 70.8 | restored the LDLR protein level in a dose dependent manner | 32.78 | 44.80 | 7.85 ± 0.25
2 | O=C(Nc1ccc(Cl)cc1)c1ccc(-c2cc3c(cc2NC(=O)c2ccc(CCl)cc2)OCO3)cc1 [B1, 4-(Chloromethyl)-N-(6-(4-((4-chlorophenyl)carbamoyl)phenyl)benzo[d][1,3]dioxol-5-yl)benzamide] | 54.3 ± 1.54 | 62.2 | restored the LDLR protein level in a dose dependent manner | 33.29 | 47.15 | 9.97 ± 0.39
3 | O=C(Nc1ccc(F)cc1)c1ccc(-c2cc3c(cc2NC(=O)c2ccc(CCl)cc2)OCO3)cc1 [B3, 4-(Chloromethyl)-N-(6-(4-((4-fluorophenyl)carbamoyl)phenyl)benzo[d][1,3]dioxol-5-yl)benzamide] | 46.3 ± 2.77 | 23.4 | restored the LDLR protein level in a dose dependent manner | 39.58 | 50.67 | 8.09 ± 0.76
4 | CC(C)NC(=O)c1ccc(-c2cc3c(cc2NC(=O)c2ccc(CCl)cc2)OCO3)cc1 [B20, 4-(Chloromethyl)-N-(6-(4-(isopropylcarbamoyl)phenyl)benzo[d][1,3]dioxol-5-yl)benzamide] | 3.15 ± 0.13 |  |  |  |  | 9.55 ± 0.43
5 | COCc1ccc(C(=O)Nc2cc3c(cc2-c2ccc(C(=O)Nc4cc(OC)cc(OC)c4)cc2)OCO3)cc1 [C1, N-(3,5-dimethoxyphenyl)-4-(6-(4-(methoxymethyl)benzamido)benzo[d][1,3]dioxol-5-yl)benzamide] | 21.6 ± 1.67 |  |  |  |  | 6.21 ± 0.22
6 | COCc1ccc(C(=O)Nc2cc3c(cc2-c2ccc(C(=O)N4CCN(C(=O)OC(C)(C)C)CC4)cc2)OCO3)cc1 [C2, Tert-butyl4-(4-(6-(4-(methoxymethyl)benzamido)benzo[d][1,3]dioxol-5-yl)benzoyl)piperazine-1-carboxylate] | 17.8 ± 1.24 |  |  |  |  | 13.5 ± 1.13
7 | COCc1ccc(C(=O)Nc2cc3c(cc2-c2ccc(C(=O)N4CCN(c5ccccc5OC)CC4)cc2)OCO3)cc1 [C4, 4-(Methoxymethyl)-N-(6-(4-(4-(2-methoxyphenyl)piperazine-1-carbonyl)phenyl)benzo[d][1,3]dioxol-5-yl)benzamide] | 7.55 ± 0.71 |  |  |  |  | 6.77 ± 0.62
8 | COCc1ccc(C(=O)Nc2cc3c(cc2-c2ccc(C(=O)N4CCN(CCc5ccccc5)CC4)cc2)OCO3)cc1 [C5, 4-(Methoxymethyl)-N-(6-(4-(4-phenethylpiperazine-1-carbonyl)phenyl)benzo[d][1,3]dioxol-5-yl)benzamide] | 5.92 ± 0.32 |  |  |  |  | 5.63 ± 0.37
9 | COCc1ccc(C(=O)Nc2cc3c(cc2-c2ccc(C(=O)Nc4ccc(N5CCN(C)CC5)cc4)cc2)OCO3)cc1 [C9, 4-(Methoxymethyl)-N-(6-(4-((4-(4-methylpiperazin-1-yl)phenyl)carbamoyl)phenyl)benzo[d][1,3]dioxol-5-yl)benzamide] | 3.75 ± 0.33 |  |  |  |  | 6.22 ± 0.24
10 | COCc1ccc(C(=O)Nc2cc3c(cc2-c2ccc(C(=O)NC(C)C)cc2)OCO3)cc1 [C10, N-isopropyl-4-(6-(4-(methoxymethyl)benzamido)benzo[d][1,3]dioxol-5-yl)benzamide] | 5.48 ± 0.2 |  |  |  |  | 6.76 ± 0.18

The next lines start with results.

Row | inhibition at 10 µM [4] [%] | IC50 [4] [µM] | SMILES | effect on LDLR protein level (in words) [1] | LDL uptake of HepG2 cells [2, 5] [%] | LDL uptake of HepG2 cells [2, 6] [%] | inhibition at 10 µM [3] [%]
11 | 4.07 ± 0.25 |  | O=C(Nc1cc2c(cc1-c1ccc(C(=O)N3CCN(c4ccc(F)cc4)CC3)cc1)OCO2)c1ccc(CCl)cc1 [B17, 4-(Chloromethyl)-N-(6-(4-(4-(4-fluorophenyl)piperazine-1-carbonyl)phenyl)benzo[d][1,3]dioxol-5-yl)benzamide] |  |  |  | 16.4 ± 1.18
12 | 5.66 ± 0.02 |  | CCN1CCN(C(=O)c2ccc(-c3cc4c(cc3NC(=O)c3ccc(CCl)cc3)OCO4)cc2)CC1 [B18, 4-(Chloromethyl)-N-(6-(4-(4-ethylpiperazine-1-carbonyl)phenyl)benzo[d][1,3]dioxol-5-yl)benzamide] |  |  |  | 6.76 ± 0.26
13 | 5.82 ± 0.31 |  | CC(C)N1CCN(C(=O)c2ccc(-c3cc4c(cc3NC(=O)c3ccc(CCl)cc3)OCO4)cc2)CC1 [B19, 4-(Chloromethyl)-N-(6-(4-(4-isopropylpiperazine-1-carbonyl)phenyl)benzo[d][1,3]dioxol-5-yl)benzamide] |  |  |  | 8.38 ± 0.81
14 | 25.3 ± 2.11 |  | COCc1ccc(C(=O)Nc2cc3c(cc2-c2ccc(C(=O)N4CCN(c5ccc(OC)cc5)CC4)cc2)OCO3)cc1 [C3, 4-(Methoxymethyl)-N-(6-(4-(4-(4-methoxyphenyl)piperazine-1-carbonyl)phenyl)benzo[d][1,3]dioxol-5-yl)benzamide] |  |  |  | 6.62 ± 0.45
15 | 3.39 ± 1.67 |  | COCc1ccc(C(=O)Nc2cc3c(cc2-c2ccc(C(=O)N4CCN(c5ccccc5)CC4)cc2)OCO3)cc1 [C6, 4-(Methoxymethyl)-N-(6-(4-(4-phenylpiperazine-1-carbonyl)phenyl)benzo[d][1,3]dioxol-5-yl)benzamide] |  |  |  | 6.15 ± 0.26
16 | 33.4 ± 1.52 |  | COCc1ccc(C(=O)Nc2cc3c(cc2-c2ccc(C(=O)N4CCN(c5ccc(F)cc5)CC4)cc2)OCO3)cc1 [C7, N-(6-(4-(4-(4-fluorophenyl)piperazine-1-carbonyl)phenyl)benzo[d][1,3]dioxol-5-yl)-4-(methoxymethyl)benzamide] |  |  |  | 12.8 ± 1.07
17 | 25.7 ± 1.2 |  | COCc1ccc(C(=O)Nc2cc3c(cc2-c2ccc(C(=O)N4CCN(c5ccc(Cl)cc5)CC4)cc2)OCO3)cc1 [C8, N-(6-(4-(4-(4-chlorophenyl)piperazine-1-carbonyl)phenyl)benzo[d][1,3]dioxol-5-yl)-4-(methoxymethyl)benzamide] |  |  |  | 14.5 ± 1.22
